# Reference: patent publication EP3634580B1, “COMPOSITIONS COMPRISING LACTULOSE FOR MAINTAINING OR IMPROVING GUT HEALTH IN HUMANS” (Fresenius Kabi Austria GmbH, priority 2017, dated 2018)
# How the values were obtained:
# Assay type in all cases: cell-based
# [1] = system: colon microbiota of human origin; experiment: TIM-2 in vitro model of the proximal colon: ammonia production; details: for ammonia production (in words): daily doses of 2 g, 3 g, 4 g, 5 g, 120 h test period, versus control; for Cumulative ammonia production: mean of n = 2
# Protocol: (§1) Crystalline lactulose was administered daily for 5 days to the TNO Intestinal Model (TIM-2), an in vitro model of the proximal colon. NaOH consumption, short-chain fatty acids (SCFA) production, ammonia production as well as relative abundance of microbiota were analyzed.
# (§2) The substance administered in this study was lactulose crystals (S.C.M. Società Chimica Mugello S.r.l., Vicchio, Italy). Experiments without the addition of lactulose served as negative control.
# (§3) The TNO Intestinal Model (TIM-2) is a dynamic in vitro model of the proximal colon. The TIM-2 system was inoculated with a highly metabolically active colon microbiota of human origin. In the system the following standardized conditions were simulated: body temperature; pH in the lumen of the proximal colon (pH 5.8); delivery of a substrate from the 'ileum' (SIEM; Standardized Ileum Efflux Medium); mixing and transport of the intestinal contents; anaerobiosis; absorption of water and absorption of fermentation products, metabolites and other low molecular weight compounds (via a semipermeable membrane inside the colon model).
# (§4) SIEM simulates material passing the ileocecal valve in humans. It contained the major non-digestible carbohydrates (pectin, xylan, arabinogalactan, amylopectin, starch) found in a normal western diet as well as protein (bactopepton, casein), ox-bile, Tween 80 as well as vitamins and minerals. SIEM was added to the system at a speed of 2.5 mL/h and the speed of the dialysis liquid was 1.5 mL/min. During the experiment, the intestinal contents were mixed continuously by the peristaltic movements of the TIM-2 system. In order to simulate the transit of the chime from proximal to distal colon, 25 mL of the lumen was removed every 24 h and discarded.
# (§5) Before performing each experiment, the system was inoculated with a standardized microbiota of human origin. This standardized microbiota was prepared using fecal donations from a group of 4 healthy volunteers (3 females, 1 male, age 38.8 ± 3.9 years; BMI (body mass index) 24.2 ± 1.5 kg/m^2). Individuals provided signed informed consent before participation, were non-smokers and had not used antibiotics, prebiotics, probiotics or laxatives within 1 month before the stool donation.
# (§6) At the start of the adaptation period the microbiota was allowed to adapt to the model conditions and SIEM for 16 h. After the adaptation period the 120 h test period started in which lactulose was added to TIM-2 once daily.
# (§7) Lactulose was added to the system at daily doses of 2 g, 3 g, 4 g, and 5 g lactulose. Each dose as well as the control experiment was studied in duplicate (n = 2). The test period of the TIM-2 experiments lasted 120 h (5 consecutive days).
# (§8) Metabolites like the short-chain fatty acids (SCFA) and ammonia produced in TIM-2 were continuously removed from the lumen by a semipermeable membrane unit. This dialysate was collected at the start of the test period and after 24, 48, 72, 96, and 120 h.
# Samples for ammonia analysis were centrifuged as described above. Ammonia was determined based on the Berthelot reaction.
# [2] = system: colon microbiota of human origin; experiment: TIM-2 in vitro model of the proximal colon: short-chain fatty acids (SCFA) production; details: for Cumulative production of butyrate / Cumulative production of total short chain fatty acids (SCFA): mean of n = 2
# Protocol: as §1, §2, §3, §4, §5, §6, §7, §8
# The lumen and dialysate fractions of TIM-2 were analyzed using gas chromatography for SCFA (acetate, propionate and butyrate). Dialysate samples were directly used. Lumen samples were centrifuged (12,000 rpm at 4 °C for 10 min).
# [3] = system: colon microbiota of human origin; experiment: TNO Intestinal Model (TIM-2), in vitro model of the proximal colon: sodium hydroxide consumption; details: for Cumulative sodium hydroxide consumption: mean of n = 2
# Protocol: as §1, §2, §3, §4, §5, §6, §7
# The pH was kept at a value of 5.8 by automatic titration with 2 M NaOH, the consumption of NaOH was monitored.
# [4] = daily doses of 2 g, 3 g, 4 g, 5 g, 120 h test period, versus control
# [5] = lactulose 2 g daily, 0 h (values at the start set to zero), control 0
# [6] = lactulose 3 g daily, 0 h (values at the start set to zero), control 0
# [7] = lactulose 4 g daily, 0 h (values at the start set to zero), control 0
# [8] = lactulose 5 g daily, 0 h (values at the start set to zero), control 0
compound,measurement,setting,value
"OC[C@H]1O[C@@H](O[C@@H]2[C@@H](CO)OC(O)(CO)[C@H]2O)[C@H](O)[C@@H](O)[C@H]1O (mixture of isomers) [Lactulose, lactulose]",ammonia production (in words),[1],decreased the levels
same,ammonia production (in words),[1]; listed as lactulose,decreased mean ammonia production
same,Cumulative ammonia production,"[1]; lactulose 2 g daily, 0 h, control 0",0 mmol
same,Cumulative ammonia production,"[1]; lactulose 2 g daily, 24 h, control 10",9 mmol
same,Cumulative ammonia production,"[1]; lactulose 2 g daily, 48 h, control 31",29 mmol
same,Cumulative ammonia production,"[1]; lactulose 2 g daily, 72 h, control 55",48 mmol
same,Cumulative ammonia production,"[1]; lactulose 2 g daily, 96 h, control 82",68 mmol
same,Cumulative ammonia production,"[1]; lactulose 2 g daily, 120 h, control 108",88 mmol
same,Cumulative ammonia production,"[1]; lactulose 3 g daily, 0 h, control 0",0 mmol
same,Cumulative ammonia production,"[1]; lactulose 3 g daily, 24 h, control 10",9 mmol
same,Cumulative ammonia production,"[1]; lactulose 3 g daily, 48 h, control 31",26 mmol
same,Cumulative ammonia production,"[1]; lactulose 3 g daily, 72 h, control 55",45 mmol
same,Cumulative ammonia production,"[1]; lactulose 3 g daily, 96 h, control 82",64 mmol
same,Cumulative ammonia production,"[1]; lactulose 3 g daily, 120 h, control 108",85 mmol
same,Cumulative ammonia production,"[1]; lactulose 4 g daily, 0 h, control 0",0 mmol
same,Cumulative ammonia production,"[1]; lactulose 4 g daily, 24 h, control 10",6 mmol
same,Cumulative ammonia production,"[1]; lactulose 4 g daily, 48 h, control 31",15 mmol
same,Cumulative ammonia production,"[1]; lactulose 4 g daily, 72 h, control 55",25 mmol
same,Cumulative ammonia production,"[1]; lactulose 4 g daily, 96 h, control 82",38 mmol
same,Cumulative ammonia production,"[1]; lactulose 4 g daily, 120 h, control 108",51 mmol
same,Cumulative ammonia production,"[1]; lactulose 5 g daily, 0 h, control 0",0 mmol
same,Cumulative ammonia production,"[1]; lactulose 5 g daily, 24 h, control 10",5 mmol
same,Cumulative ammonia production,"[1]; lactulose 5 g daily, 48 h, control 31",12 mmol
same,Cumulative ammonia production,"[1]; lactulose 5 g daily, 72 h, control 55",22 mmol
same,Cumulative ammonia production,"[1]; lactulose 5 g daily, 96 h, control 82",32 mmol
same,Cumulative ammonia production,"[1]; lactulose 5 g daily, 120 h, control 108",41 mmol
same,SCFA production (in words),[2]; [4],increased the levels
same,levels of butyrate (in words),[2]; [4],increased the levels
same,SCFA production (in words),"[2]; daily doses of 2 g, 3 g, 4 g, 5 g, 120 h test period, versus control, listed as lactulose",higher SCFA production as compared to the control
same,Cumulative production of butyrate,[2]; [5],0 mmol
same,Cumulative production of total short chain fatty acids (SCFA),[2]; [5],0 mmol
same,Cumulative production of butyrate,"[2]; lactulose 2 g daily, 24 h, control 7",14 mmol
same,Cumulative production of total short chain fatty acids (SCFA),"[2]; lactulose 2 g daily, 24 h, control 62",85 mmol
same,Cumulative production of butyrate,"[2]; lactulose 2 g daily, 48 h, control 18",27 mmol
same,Cumulative production of total short chain fatty acids (SCFA),"[2]; lactulose 2 g daily, 48 h, control 129",163 mmol
same,Cumulative production of butyrate,"[2]; lactulose 2 g daily, 72 h, control 31",39 mmol
same,Cumulative production of total short chain fatty acids (SCFA),"[2]; lactulose 2 g daily, 72 h, control 194",234 mmol
same,Cumulative production of butyrate,"[2]; lactulose 2 g daily, 96 h, control 44",52 mmol
same,Cumulative production of total short chain fatty acids (SCFA),"[2]; lactulose 2 g daily, 96 h, control 257",318 mmol
same,Cumulative production of butyrate,"[2]; lactulose 2 g daily, 120 h, control 58",69 mmol
same,Cumulative production of total short chain fatty acids (SCFA),"[2]; lactulose 2 g daily, 120 h, control 320",403 mmol
same,Cumulative production of butyrate,[2]; [6],0 mmol
same,Cumulative production of total short chain fatty acids (SCFA),[2]; [6],0 mmol
same,Cumulative production of butyrate,"[2]; lactulose 3 g daily, 24 h, control 7",12 mmol
same,Cumulative production of total short chain fatty acids (SCFA),"[2]; lactulose 3 g daily, 24 h, control 62",85 mmol
same,Cumulative production of butyrate,"[2]; lactulose 3 g daily, 48 h, control 18",27 mmol
same,Cumulative production of total short chain fatty acids (SCFA),"[2]; lactulose 3 g daily, 48 h, control 129",175 mmol
same,Cumulative production of butyrate,"[2]; lactulose 3 g daily, 72 h, control 31",40 mmol
same,Cumulative production of total short chain fatty acids (SCFA),"[2]; lactulose 3 g daily, 72 h, control 194",256 mmol
same,Cumulative production of butyrate,"[2]; lactulose 3 g daily, 96 h, control 44",54 mmol
same,Cumulative production of total short chain fatty acids (SCFA),"[2]; lactulose 3 g daily, 96 h, control 257",340 mmol
same,Cumulative production of butyrate,"[2]; lactulose 3 g daily, 120 h, control 58",68 mmol
same,Cumulative production of total short chain fatty acids (SCFA),"[2]; lactulose 3 g daily, 120 h, control 320",427 mmol
same,Cumulative production of butyrate,[2]; [7],0 mmol
same,Cumulative production of total short chain fatty acids (SCFA),[2]; [7],0 mmol
same,Cumulative production of butyrate,"[2]; lactulose 4 g daily, 24 h, control 7",12 mmol
same,Cumulative production of total short chain fatty acids (SCFA),"[2]; lactulose 4 g daily, 24 h, control 62",97 mmol
same,Cumulative production of butyrate,"[2]; lactulose 4 g daily, 48 h, control 18",30 mmol
same,Cumulative production of total short chain fatty acids (SCFA),"[2]; lactulose 4 g daily, 48 h, control 129",216 mmol
same,Cumulative production of butyrate,"[2]; lactulose 4 g daily, 72 h, control 31",47 mmol
same,Cumulative production of total short chain fatty acids (SCFA),"[2]; lactulose 4 g daily, 72 h, control 194",310 mmol
same,Cumulative production of butyrate,"[2]; lactulose 4 g daily, 96 h, control 44",70 mmol
same,Cumulative production of total short chain fatty acids (SCFA),"[2]; lactulose 4 g daily, 96 h, control 257",405 mmol
same,Cumulative production of butyrate,"[2]; lactulose 4 g daily, 120 h, control 58",93 mmol
same,Cumulative production of total short chain fatty acids (SCFA),"[2]; lactulose 4 g daily, 120 h, control 320",500 mmol
same,Cumulative production of butyrate,[2]; [8],0 mmol
same,Cumulative production of total short chain fatty acids (SCFA),[2]; [8],0 mmol
same,Cumulative production of butyrate,"[2]; lactulose 5 g daily, 24 h, control 7",8 mmol
same,Cumulative production of total short chain fatty acids (SCFA),"[2]; lactulose 5 g daily, 24 h, control 62",84 mmol
same,Cumulative production of butyrate,"[2]; lactulose 5 g daily, 48 h, control 18",29 mmol
same,Cumulative production of total short chain fatty acids (SCFA),"[2]; lactulose 5 g daily, 48 h, control 129",214 mmol
same,Cumulative production of butyrate,"[2]; lactulose 5 g daily, 72 h, control 31",53 mmol
same,Cumulative production of total short chain fatty acids (SCFA),"[2]; lactulose 5 g daily, 72 h, control 194",309 mmol
same,Cumulative production of butyrate,"[2]; lactulose 5 g daily, 96 h, control 44",84 mmol
same,Cumulative production of total short chain fatty acids (SCFA),"[2]; lactulose 5 g daily, 96 h, control 257",430 mmol
same,Cumulative production of butyrate,"[2]; lactulose 5 g daily, 120 h, control 58",118 mmol
same,Cumulative production of total short chain fatty acids (SCFA),"[2]; lactulose 5 g daily, 120 h, control 320",520 mmol
same,use of NaOH (in words),[3]; [4],dose dependent increased use of NaOH
same,Cumulative sodium hydroxide consumption,"[3]; lactulose 2 g daily, 0 h, control 19",19 mL
same,Cumulative sodium hydroxide consumption,"[3]; lactulose 2 g daily, 24 h, control 48",58 mL
same,Cumulative sodium hydroxide consumption,"[3]; lactulose 2 g daily, 48 h, control 71",89 mL
same,Cumulative sodium hydroxide consumption,"[3]; lactulose 2 g daily, 72 h, control 90",115 mL
same,Cumulative sodium hydroxide consumption,"[3]; lactulose 2 g daily, 96 h, control 107",139 mL
same,Cumulative sodium hydroxide consumption,"[3]; lactulose 2 g daily, 120 h, control 125",162 mL
same,Cumulative sodium hydroxide consumption,"[3]; lactulose 3 g daily, 0 h, control 19",20 mL
same,Cumulative sodium hydroxide consumption,"[3]; lactulose 3 g daily, 24 h, control 48",65 mL
same,Cumulative sodium hydroxide consumption,"[3]; lactulose 3 g daily, 48 h, control 71",105 mL
same,Cumulative sodium hydroxide consumption,"[3]; lactulose 3 g daily, 72 h, control 90",136 mL
same,Cumulative sodium hydroxide consumption,"[3]; lactulose 3 g daily, 96 h, control 107",169 mL
same,Cumulative sodium hydroxide consumption,"[3]; lactulose 3 g daily, 120 h, control 125",202 mL
same,Cumulative sodium hydroxide consumption,"[3]; lactulose 4 g daily, 0 h, control 19",20 mL
same,Cumulative sodium hydroxide consumption,"[3]; lactulose 4 g daily, 24 h, control 48",72 mL
same,Cumulative sodium hydroxide consumption,"[3]; lactulose 4 g daily, 48 h, control 71",113 mL
same,Cumulative sodium hydroxide consumption,"[3]; lactulose 4 g daily, 72 h, control 90",151 mL
same,Cumulative sodium hydroxide consumption,"[3]; lactulose 4 g daily, 96 h, control 107",185 mL
same,Cumulative sodium hydroxide consumption,"[3]; lactulose 4 g daily, 120 h, control 125",223 mL
same,Cumulative sodium hydroxide consumption,"[3]; lactulose 5 g daily, 0 h, control 19",18 mL
same,Cumulative sodium hydroxide consumption,"[3]; lactulose 5 g daily, 24 h, control 48",69 mL
same,Cumulative sodium hydroxide consumption,"[3]; lactulose 5 g daily, 48 h, control 71",117 mL
same,Cumulative sodium hydroxide consumption,"[3]; lactulose 5 g daily, 72 h, control 90",157 mL
same,Cumulative sodium hydroxide consumption,"[3]; lactulose 5 g daily, 96 h, control 107",193 mL
same,Cumulative sodium hydroxide consumption,"[3]; lactulose 5 g daily, 120 h, control 125",223 mL
